System: 22RV1 cells
Test: not given
Settings: Homo sapiens, 22Rv1, 144 h, read-out: 22RV1 IC50 (nM)

Row | Structure (SMILES) | IC50
1 | CC(C)(c1ccc(OCCCCCCCCOCCCCNc2ccc3c(c2)C(=O)N(C2CCC(=O)NC2=O)C3=O)cc1)c1ccc(OCc2ccnc(N3CC4(COC4)C3)n2)cc1 (stereo not drawn) [Example 61, 5-((4-((8-(4-(2-(4-((2-(2-oxa-6-azaspiro[3.3]heptan-6-yl)pyrimidin-4-yl)methoxy)phenyl)propan-2-yl)phenoxy)octyl)oxy)butyl)amino)-2-(2,6-dioxopiperidin-3-yl)isoindolin-1,3-dione] | 4000 nM
2 | CC(C)(c1ccc(OCc2ccnc(N3CC4(COC4)C3)n2)cc1)c1ccc(O[C@H]2C[C@H](Nc3ccc4c(c3)C(=O)N(C3CCC(=O)NC3=O)C4=O)C2)c(F)c1 (stereo partly drawn) [Example 364, 5-(((1r,3r)-3-(4-(2-(4-((2-(2-oxa-6-azaspiro[3.3]heptane-6-yl)pyrimidin-4-yl)methoxy)phenyl)isopropan-2-yl)-2-fluorophenoxy)cyclobutyl)amino)-2-(2,6-dioxopiperidin-3-yl)isoindolin-1,3-dione] | 12 nM

Same assay, conditions: Homo sapiens, 22Rv1, 144 h, read-out: 22RV1 IC50 (nM), 22RV1 cells, 6 days culture, CCK-8, OD 450 nm

Row | IC50 | Structure (SMILES)
3 | 9 nM | CC(C)(c1ccc(OCc2cc(N3CC4(COC4)C3)ncn2)cc1)c1ccc(OC2CC(Nc3ccc4c(c3)C(=O)N(C3CCC(=O)NC3=O)C4=O)C2)cc1 (stereo not drawn) [Example 532]
4 | 12 nM | CC(C)(c1ccc(OCc2cncc(N3CC4(COC4)C3)n2)cc1)c1ccc(O[C@H]2C[C@@H](Nc3ccc4c(c3)C(=O)N(C3CCC(=O)NC3=O)C4=O)C2)cc1 (stereo partly drawn) [Example 538]
5 | 12 nM | CC(C)(c1ccc(OCc2nccc(N3CC4(COC4)C3)n2)cc1)c1ccc(O[C@H]2C[C@H](Nc3ccc4c(c3)C(=O)N(C3CCC(=O)NC3=O)C4=O)C2)cc1 (stereo partly drawn) [Example 544]

Target: T1, androgen receptor (AR) splicing variant AR-v7 (Homo sapiens, UniProt P10275)
T1 construct: The degradation activity of compounds on AR-v7 in 22RV1 cells; host or cells: 22RV1 cells
T1 sequence (P10275 1-644 isoform P10275-3): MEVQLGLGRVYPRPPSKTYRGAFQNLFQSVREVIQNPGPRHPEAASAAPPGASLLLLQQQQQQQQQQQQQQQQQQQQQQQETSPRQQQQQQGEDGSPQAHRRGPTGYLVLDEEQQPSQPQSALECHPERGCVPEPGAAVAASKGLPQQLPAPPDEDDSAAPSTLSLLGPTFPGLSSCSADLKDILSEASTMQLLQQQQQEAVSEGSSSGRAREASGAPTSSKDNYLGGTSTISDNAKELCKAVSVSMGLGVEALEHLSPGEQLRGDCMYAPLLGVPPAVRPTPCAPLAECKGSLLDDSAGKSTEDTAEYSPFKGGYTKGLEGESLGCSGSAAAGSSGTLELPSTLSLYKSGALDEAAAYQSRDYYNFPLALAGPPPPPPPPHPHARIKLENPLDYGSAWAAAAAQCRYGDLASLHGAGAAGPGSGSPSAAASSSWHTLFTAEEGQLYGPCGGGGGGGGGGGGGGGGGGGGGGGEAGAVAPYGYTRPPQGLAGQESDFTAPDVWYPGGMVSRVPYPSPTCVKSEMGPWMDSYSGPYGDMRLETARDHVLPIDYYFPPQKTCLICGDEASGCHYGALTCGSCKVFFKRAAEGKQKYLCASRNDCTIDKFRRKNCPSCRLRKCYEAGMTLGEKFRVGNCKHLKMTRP
Test: Degradation activity on androgen receptor splicing variant AR-v7 in 22RV1 cells (ELISA)
Assay type: cell-based
Settings: AR-v7 degradation in 22RV1 cells, 48 h, class symbols

Row | Structure (SMILES) | DC50
6 | CC(C)(c1ccc(OCCCCCCCCOCCCCNc2ccc3c(c2)C(=O)N(C2CCC(=O)NC2=O)C3=O)cc1)c1ccc(OCc2ccnc(N3CC4(COC4)C3)n2)cc1 (stereo not drawn) [Example 61, 5-((4-((8-(4-(2-(4-((2-(2-oxa-6-azaspiro[3.3]heptan-6-yl)pyrimidin-4-yl)methoxy)phenyl)propan-2-yl)phenoxy)octyl)oxy)butyl)amino)-2-(2,6-dioxopiperidin-3-yl)isoindolin-1,3-dione] | 1000 to 5000 nM
7 | Cc1nc(-c2ccc(Oc3ccc(C(C)(C)c4ccc(O[C@H]5C[C@H](Nc6ccc7c(c6)C(=O)N(C6CCC(=O)NC6=O)C7=O)C5)cc4)cc3)nc2)no1 (stereo partly drawn) [Example 546] | 11 to 100 nM
8 | CC(C)(c1ccc(OCCCNc2cccc3c2C(=O)N(C2CCC(=O)NC2=O)C3=O)cc1)c1ccc(OCc2ccnc(N3CCC3)n2)cc1 (stereo not drawn) [Example 554, 4-((3-(4-(2-(4-((2-(azetidin-1-yl)pyrimidin-4-yl)methoxy)phenyl)propan-2-yl)phenoxy)propyl)amino)-2-(2,6-dioxopiperidin-3-yl)isoindolin-1,3-dione] | 101 to 1000 nM
9 | CC(C)(c1ccc(OCCCNc2cccc3c2C(=O)N(C2CCC(=O)NC2=O)C3=O)cc1)c1ccc(OCc2ccnc(N3CCCCC3)n2)cc1 (stereo not drawn) [Example 555] | 101 to 1000 nM
10 | CC(=O)c1nccc(COc2ccc(C(C)(C)c3ccc(N4CC5(CCN(c6ccc7c(c6)C(=O)N(C6CCC(=O)NC6=O)C7=O)CC5)C4)cc3)cc2)n1 (stereo not drawn) [Example 559] | 1000 to 5000 nM
11 | CC(=O)c1nccc(COc2ccc(C(C)(C)c3ccc(N4CCC5(CCN(c6ccc7c(c6)C(=O)N(C6CCC(=O)NC6=O)C7=O)C5)C4)cc3)cc2)n1 (stereo not drawn) [Example 560] | 1000 to 5000 nM
12 | CC(=O)c1nccc(COc2ccc(C(C)(C)c3ccc(OC4CC5(C4)CN(c4ccc6c(c4)C(=O)N(C4CCC(=O)NC4=O)C6=O)C5)cc3)cc2)n1 (stereo not drawn) [Example 561] | 11 to 100 nM
13 | CC(=O)c1nccc(COc2ccc(C(C)(C)c3ccc(OC4CC5(CCN(c6ccc7c(c6)C(=O)N(C6CCC(=O)NC6=O)C7=O)C5)C4)cc3)cc2)n1 (stereo not drawn) [Example 562] | 1000 to 5000 nM
14 | CC(C)(c1ccc(OCc2ccnc(N3CC4(COC4)C3)n2)cc1)c1ccc(OC[C@H]2CCCN2Cc2ccc3c(c2)C(=O)N(C2CCC(=O)NC2=O)C3=O)cc1 (stereo partly drawn) [Example 565] | 1000 to 5000 nM
15 | CC(C)(c1ccc(OCc2ccnc(N3CC4(COC4)C3)n2)cc1)c1ccc(OC[C@@H]2CCN2Cc2ccc3c(c2)C(=O)N(C2CCC(=O)NC2=O)C3=O)cc1 (stereo partly drawn) [Example 566] | 1000 to 5000 nM
16 | CC(C)(c1ccc(Oc2ncnc(N3CC(N4CCC4)C3)c2F)cc1)c1ccc(O[C@H]2C[C@@H](Nc3ccc4c(c3)C(=O)N(C3CCC(=O)NC3=O)C4=O)C2)cc1 (stereo partly drawn) [Example 575] | 11 to 100 nM
17 | CCN1CC(Oc2ncnc(Oc3ccc(C(C)(C)c4ccc(O[C@H]5C[C@@H](Nc6ccc7c(c6)C(=O)N(C6CCC(=O)NC6=O)C7=O)C5)cc4)cc3)c2F)C1 (stereo partly drawn) [Example 576] | 11 to 100 nM
18 | CC(C)(c1ccc(Oc2cc(-n3nccn3)ncn2)cc1)c1ccc(O[C@H]2C[C@@H](Nc3ccc4c(c3)C(=O)N(C3CCC(=O)NC3=O)C4=O)C2)cc1 (stereo partly drawn) [Example 577] | 11 to 100 nM
19 | Cc1nc(-c2ccc(Oc3ccc(C(C)(C)c4ccc(O[C@H]5C[C@@H](Nc6ccc7c(c6)C(=O)N(C6CCC(=O)NC6=O)C7=O)C5)cc4)cc3)cn2)no1 (stereo partly drawn) [Example 587] | 11 to 100 nM
20 | Cc1nnc(-c2cc(Oc3ccc(C(C)(C)c4ccc(O[C@H]5C[C@H](Nc6ccc7c(c6)C(=O)N(C6CCC(=O)NC6=O)C7=O)C5)cc4)cc3)ncn2)o1 (stereo partly drawn) [Example 590] | 11 to 100 nM
21 | Cc1nc(-c2ccc(Oc3ccc(C(C)(C)c4ccc(O[C@H]5C[C@@H](Nc6ccc7c(c6)C(=O)N(C6CCC(=O)NC6=O)C7=O)C5)cc4)cc3)cn2)no1 (stereo partly drawn) [Example 597, 2-(2,6-dioxopiperidin-3-yl)-5-(((1s,3s)-3-(4-(2-(4-((6-(5-methyl-1,2,4-oxadiazol-3-yl)pyridin-3-yl)oxy)phenyl)propan-2-yl)phenoxy)cyclobutyl)amino)isoindolin-1,3-dione] | 11 to 100 nM

Now from value to compound:

Row | DC50 | Structure (SMILES)
22 | 11 to 100 nM | CC(C)(c1ccc(OCc2nccc(N3CC4(COC4)C3)n2)cc1)c1ccc(O[C@H]2C[C@@H](Nc3ccc4c(c3)C(=O)N(C3CCC(=O)NC3=O)C4=O)C2)cc1 (stereo partly drawn) [Example 545]
23 | 11 to 100 nM | COc1cnc(Oc2ccc(C(C)(C)c3ccc(O[C@H]4C[C@H](Nc5ccc6c(c5)C(=O)N(C5CCC(=O)NC5=O)C6=O)C4)cc3)cc2)cn1 (stereo partly drawn) [Example 552, 2-(2,6-dioxopiperidin-3-yl)-5-(((1r,3r)-3-(4-(4-((5-methoxypyrazin-2-yl)oxy)phenyl)propan-2-yl)phenoxy)amino)isoindolin-1,3-dione]
24 | 11 to 100 nM | CC(C)(c1ccc(OCc2ccnc(N3CC4(COC4)C3)n2)cc1)c1ccc(OC2CCC(Nc3ccc4c(c3)C(=O)N(C3CCC(=O)NC3=O)C4=O)C2)cc1 (stereo not drawn) [Example 563, 5-((3-(4-(2-(4-((2-(2-oxa-6-azaspiro[3.3]heptan-6-yl)pyrimidin-4-yl)methoxy)phenyl)propan-2-yl)phenoxy)cyclopentyl)amino)-2-(2,6-dioxopiperidin-3-yl)isoindolin-1,3-dione]
25 | 101 to 1000 nM | CC(C)(c1ccc(OCc2ccnc(N3CC4(COC4)C3)n2)cc1)c1ccc(OC2CC3(CC(Nc4ccc5c(c4)C(=O)N(C4CCC(=O)NC4=O)C5=O)C3)C2)cc1 (stereo not drawn) [Example 567, 5-((6-(4-(2-(4-((2-(2-oxa-6-azaspiro[3.3]heptan-6-yl)pyrimidin-4-yl)methoxy)phenyl)propan-2-yl)phenoxy)spiro[3.3]heptan-2-yl)amino)-2-(2,6-dioxopiperidin-3-yl)isoindolin-1,3-dione]
26 | 11 to 100 nM | CC(C)(c1ccc(OCC(=O)Nc2ccc3c(c2)C(=O)N(C2CCC(=O)NC2=O)C3=O)cc1)c1ccc(OCc2ccnc(N3CC4(COC4)C3)n2)cc1 (stereo not drawn) [Example 568]
27 | 1000 to 5000 nM | CC(C)(c1ccc(OCc2ccnc(N3CC4(COC4)C3)n2)cc1)c1ccc(OC2CCCCC2Nc2ccc3c(c2)C(=O)N(C2CCC(=O)NC2=O)C3=O)cc1 (stereo not drawn) [Example 569, 5-((2-(4-(2-(4-((2-(2-oxa-6-azaspiro[3.3]heptan-6-yl)pyrimidin-4-yl)methoxy)phenyl)propan-2-yl)phenoxy)cyclohexyl)amino)-2-(2,6-dioxopiperidin-3-yl)isoindolin-1,3-dione]
28 | 101 to 1000 nM | CC(C)(c1ccc(OCc2ccnc(N3CC4(COC4)C3)n2)cc1)c1ccc(N2CC(CNc3ccc4c(c3)C(=O)N(C3CCC(=O)NC3=O)C4=O)C2)cc1 (stereo not drawn) [Example 570]
29 | 11 to 100 nM | CC(C)(c1ccc(Oc2cnc(N3CC4(COC4)C3)cn2)cc1)c1ccc(O[C@H]2C[C@H](Nc3ccc4c(c3)C(=O)N(C3CCC(=O)NC3=O)C4=O)C2)cc1 (stereo partly drawn) [Example 573]
30 | 11 to 100 nM | Cc1nc(-c2cncc(Oc3ccc(C(C)(C)c4ccc(O[C@H]5C[C@H](Nc6ccc7c(c6)C(=O)N(C6CCC(=O)NC6=O)C7=O)C5)cc4)cc3)n2)no1 (stereo partly drawn) [Example 585]
31 | 11 to 100 nM | Cc1nc(-c2cnc(Oc3ccc(C(C)(C)c4ccc(O[C@H]5C[C@H](Nc6ccc7c(c6)C(=O)N(C6CCC(=O)NC6=O)C7=O)C5)cc4)cc3)cn2)no1 (stereo partly drawn) [Example 586]
32 | 11 to 100 nM | CC(C)(c1ccc(Oc2cnc(C#N)cn2)cc1)c1ccc(O[C@H]2C[C@H](Nc3ccc4c(c3)C(=O)N(C3CCC(=O)NC3=O)C4=O)C2)cc1 (stereo partly drawn) [Example 594, 5-(4-(2-(4-((1r,3r)-3-((2-(2,6-dioxopiperidin-3-yl)-1,3-dioxoisoindolin-5-yl)amino)cyclobutyloxy)phenyl)propan-2-yl)phenoxy)pyrazin-2-nitrile]

Same assay, conditions: AR-v7 degradation in 22RV1 cells, 48 h, numeric values

Row | DC50 | Structure (SMILES)
33 | > 10000 nM | CC(=O)c1nccc(COc2ccc(C(C)(C)c3ccc(OC4CCN(c5ccc6c(c5)C(=O)N(C5CCC(=O)NC5=O)C6=O)CC4)cc3)cc2)n1 (stereo not drawn) [Example 557]

— US20250051347A1, “BIFUNCTIONAL CHIMERIC HETEROCYCLIC COMPOUND AND USE THEREOF AS ANDROGEN RECEPTOR DEGRADER” (Hinova Pharmaceuticals, Inc., priority 2021, published 2025)
